Laboratory results from PubChem BioAssay (NCI).
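The compound was tested at five concentrations on cells cultured in 96-well plates, with a 48-hour exposure period. TGI marks complete inhibition of growth.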

Key:
Assay in all cases: DTP human tumour cell line panel, 48 h
CAKI-1 renal = system: CAKI-1 renal
CCRF-CEM leukemia = system: CCRF-CEM leukemia
HCT-15 colon = system: HCT-15 colon
UACC-62 melanoma = system: UACC-62 melanoma
OVCAR-5 ovarian = system: OVCAR-5 ovarian
EKVX NSCLC = system: EKVX NSCLC
K-562 leukemia = system: K-562 leukemia
OVCAR-4 ovarian = system: OVCAR-4 ovarian
KM12 colon = system: KM12 colon
LOX IMVI melanoma = system: LOX IMVI melanoma
SF-268 CNS = system: SF-268 CNS
IGROV1 ovarian = system: IGROV1 ovarian
SR leukemia = system: SR leukemia
HOP-92 NSCLC = system: HOP-92 NSCLC
SN12C renal = system: SN12C renal
DU-145 prostate = system: DU-145 prostate
HCT-116 colon = system: HCT-116 colon
PC-3 prostate = system: PC-3 prostate
SK-MEL-2 melanoma = system: SK-MEL-2 melanoma
HL-60(TB) leukemia = system: HL-60(TB) leukemia
MDA-MB-435 = system: MDA-MB-435
NCI-H460 lung = system: NCI-H460 lung
SNB-75 CNS = system: SNB-75 CNS
HCC-2998 colon = system: HCC-2998 colon
SK-MEL-5 melanoma = system: SK-MEL-5 melanoma
ACHN renal = system: ACHN renal
A498 renal = system: A498 renal
TK-10 renal = system: TK-10 renal
UO-31 renal = system: UO-31 renal
MCF7 breast = system: MCF7 breast
RXF 393 renal = system: RXF 393 renal
COLO 205 colon = system: COLO 205 colon
M14 melanoma = system: M14 melanoma
NCI/ADR-RES ovarian = system: NCI/ADR-RES ovarian
HS 578T breast = system: HS 578T breast
SNB-19 CNS = system: SNB-19 CNS
MALME-3M melanoma = system: MALME-3M melanoma
A549 NSCLC = system: A549 NSCLC
OVCAR-3 ovarian = system: OVCAR-3 ovarian
MOLT-4 leukemia = system: MOLT-4 leukemia
NCI-H226 lung = system: NCI-H226 lung
SK-MEL-28 melanoma = system: SK-MEL-28 melanoma
MDA-MB-231 breast = system: MDA-MB-231 breast
HT29 colon = system: HT29 colon
HOP-62 NSCLC = system: HOP-62 NSCLC
SW-620 colon = system: SW-620 colon
SK-OV-3 ovarian = system: SK-OV-3 ovarian
786-0 renal = system: 786-0 renal
MDA-N = system: MDA-N
BT-549 breast = system: BT-549 breast
SF-539 CNS = system: SF-539 CNS
T-47D breast = system: T-47D breast
OVCAR-8 ovarian = system: OVCAR-8 ovarian
U251 CNS = system: U251 CNS
UACC-257 melanoma = system: UACC-257 melanoma
SF-295 CNS = system: SF-295 CNS
NCI-H23 lung = system: NCI-H23 lung
NCI-H522 lung = system: NCI-H522 lung
RPMI-8226 leukemia = system: RPMI-8226 leukemia

Q: For `O=C1OCC(O)=C1C(c1ccc(Cl)cc1)c1cc2c(cc1O)OCO2` (centres undefined), which TGI (CAKI-1 renal) is on record?
A: > 100 µM

Q: What about the TGI (CCRF-CEM leukemia) of the same compound?
A: > 100 µM

Q: What about the TGI (HCT-15 colon) of the same compound?
A: > 100 µM

Q: What about the TGI (UACC-62 melanoma) of the same compound?
A: > 100 µM

Q: What about the TGI (OVCAR-5 ovarian) of the same compound?
A: > 100 µM

Q: What about the TGI (EKVX NSCLC) of the same compound?
A: > 100 µM

Q: And the TGI (K-562 leukemia)?
A: > 100 µM

Q: What about the TGI (OVCAR-4 ovarian) of the same compound?
A: > 100 µM

Q: And the TGI (KM12 colon)?
A: > 100 µM

Q: And the TGI (LOX IMVI melanoma)?
A: > 100 µM

Q: And the TGI (SF-268 CNS)?
A: > 100 µM

Q: And the TGI (IGROV1 ovarian)?
A: > 100 µM

Q: What about the TGI (SR leukemia) of the same compound?
A: > 100 µM

Q: What about the TGI (HOP-92 NSCLC) of the same compound?
A: > 100 µM

Q: And the TGI (SN12C renal)?
A: > 100 µM

Q: What about the TGI (DU-145 prostate) of the same compound?
A: > 100 µM

Q: What about the TGI (HCT-116 colon) of the same compound?
A: > 100 µM

Q: What about the TGI (PC-3 prostate) of the same compound?
A: > 100 µM

Q: And the TGI (SK-MEL-2 melanoma)?
A: > 100 µM

Q: What about the TGI (HL-60(TB) leukemia) of the same compound?
A: > 100 µM

Q: And the TGI (MDA-MB-435)?
A: > 100 µM

Q: What about the TGI (NCI-H460 lung) of the same compound?
A: > 100 µM

Q: What about the TGI (SNB-75 CNS) of the same compound?
A: > 100 µM

Q: What about the TGI (HCC-2998 colon) of the same compound?
A: > 100 µM

Q: And the TGI (SK-MEL-5 melanoma)?
A: > 100 µM

Q: What about the TGI (ACHN renal) of the same compound?
A: > 100 µM

Q: What about the TGI (A498 renal) of the same compound?
A: > 100 µM

Q: What about the TGI (TK-10 renal) of the same compound?
A: > 100 µM

Q: What about the TGI (UO-31 renal) of the same compound?
A: > 100 µM

Q: And the TGI (MCF7 breast)?
A: > 100 µM

Q: What about the TGI (RXF 393 renal) of the same compound?
A: > 100 µM

Q: And the TGI (COLO 205 colon)?
A: > 100 µM

Q: What about the TGI (M14 melanoma) of the same compound?
A: > 100 µM

Q: What about the TGI (NCI/ADR-RES ovarian) of the same compound?
A: > 100 µM

Q: And the TGI (HS 578T breast)?
A: > 100 µM

Q: What about the TGI (SNB-19 CNS) of the same compound?
A: > 100 µM

Q: And the TGI (MALME-3M melanoma)?
A: > 100 µM

Q: And the TGI (A549 NSCLC)?
A: > 100 µM

Q: What about the TGI (OVCAR-3 ovarian) of the same compound?
A: > 100 µM

Q: What about the TGI (MOLT-4 leukemia) of the same compound?
A: > 100 µM

Q: And the TGI (NCI-H226 lung)?
A: > 100 µM

Q: What about the TGI (SK-MEL-28 melanoma) of the same compound?
A: > 100 µM

Q: And the TGI (MDA-MB-231 breast)?
A: > 100 µM

Q: What about the TGI (HT29 colon) of the same compound?
A: > 100 µM

Q: What about the TGI (HOP-62 NSCLC) of the same compound?
A: > 100 µM

Q: And the TGI (SW-620 colon)?
A: > 100 µM

Q: What about the TGI (SK-OV-3 ovarian) of the same compound?
A: > 100 µM

Q: What about the TGI (786-0 renal) of the same compound?
A: > 100 µM

Q: What about the TGI (MDA-N) of the same compound?
A: > 100 µM

Q: And the TGI (BT-549 breast)?
A: > 100 µM

Q: What about the TGI (SF-539 CNS) of the same compound?
A: > 100 µM

Q: With `CN1CCN([C@H]2C[C@H]3[C@@H]4CC=C5C[C@@H](O)CC[C@]5(C)[C@H]4CC[C@]3(C)C2=O)CC1` as the compound, how does the TGI (CAKI-1 renal) read?
A: > 100 µM

Q: What about the TGI (CCRF-CEM leukemia) of the same compound?
A: > 100 µM

Q: And the TGI (HCT-15 colon)?
A: > 100 µM

Q: And the TGI (UACC-62 melanoma)?
A: > 100 µM

Q: And the TGI (OVCAR-5 ovarian)?
A: > 100 µM

Q: And the TGI (EKVX NSCLC)?
A: > 100 µM

Q: And the TGI (T-47D breast)?
A: > 100 µM

Q: What about the TGI (K-562 leukemia) of the same compound?
A: > 100 µM

Q: And the TGI (OVCAR-4 ovarian)?
A: > 100 µM

Q: What about the TGI (KM12 colon) of the same compound?
A: > 100 µM

Q: And the TGI (LOX IMVI melanoma)?
A: > 100 µM

Q: And the TGI (SF-268 CNS)?
A: > 100 µM

Q: And the TGI (IGROV1 ovarian)?
A: > 100 µM

Q: And the TGI (SR leukemia)?
A: 70.1 µM

Q: And the TGI (OVCAR-8 ovarian)?
A: > 100 µM

Q: What about the TGI (HOP-92 NSCLC) of the same compound?
A: > 100 µM

Q: What about the TGI (SN12C renal) of the same compound?
A: > 100 µM

Q: What about the TGI (HCT-116 colon) of the same compound?
A: > 100 µM

Q: What about the TGI (PC-3 prostate) of the same compound?
A: > 100 µM

Q: And the TGI (SK-MEL-2 melanoma)?
A: > 100 µM

Q: What about the TGI (HL-60(TB) leukemia) of the same compound?
A: > 100 µM

Q: What about the TGI (MDA-MB-435) of the same compound?
A: > 100 µM

Q: What about the TGI (NCI-H460 lung) of the same compound?
A: > 100 µM

Q: What about the TGI (SNB-75 CNS) of the same compound?
A: > 100 µM

Q: What about the TGI (HCC-2998 colon) of the same compound?
A: > 100 µM

Q: What about the TGI (SK-MEL-5 melanoma) of the same compound?
A: > 100 µM

Q: What about the TGI (ACHN renal) of the same compound?
A: > 100 µM

Q: What about the TGI (A498 renal) of the same compound?
A: > 100 µM

Q: And the TGI (TK-10 renal)?
A: > 100 µM

Q: And the TGI (UO-31 renal)?
A: > 100 µM

Q: And the TGI (MCF7 breast)?
A: > 100 µM

Q: What about the TGI (RXF 393 renal) of the same compound?
A: > 100 µM

Q: What about the TGI (COLO 205 colon) of the same compound?
A: > 100 µM

Q: What about the TGI (M14 melanoma) of the same compound?
A: > 100 µM

Q: And the TGI (NCI/ADR-RES ovarian)?
A: > 100 µM

Q: And the TGI (U251 CNS)?
A: > 100 µM

Q: What about the TGI (UACC-257 melanoma) of the same compound?
A: > 100 µM

Q: And the TGI (HS 578T breast)?
A: > 100 µM

Q: And the TGI (SNB-19 CNS)?
A: > 100 µM

Q: What about the TGI (SF-295 CNS) of the same compound?
A: > 100 µM

Q: What about the TGI (MALME-3M melanoma) of the same compound?
A: > 100 µM

Q: And the TGI (A549 NSCLC)?
A: > 100 µM

Q: And the TGI (OVCAR-3 ovarian)?
A: > 100 µM

Q: And the TGI (MOLT-4 leukemia)?
A: > 100 µM

Q: And the TGI (NCI-H226 lung)?
A: > 100 µM

Q: What about the TGI (SK-MEL-28 melanoma) of the same compound?
A: > 100 µM

Q: And the TGI (NCI-H23 lung)?
A: > 100 µM

Q: What about the TGI (MDA-MB-231 breast) of the same compound?
A: > 100 µM

Q: What about the TGI (NCI-H522 lung) of the same compound?
A: > 100 µM

Q: What about the TGI (HT29 colon) of the same compound?
A: > 100 µM

Q: And the TGI (HOP-62 NSCLC)?
A: > 100 µM

Q: And the TGI (SW-620 colon)?
A: > 100 µM

Q: What about the TGI (SK-OV-3 ovarian) of the same compound?
A: > 100 µM

Q: And the TGI (786-0 renal)?
A: > 100 µM

Q: What about the TGI (MDA-N) of the same compound?
A: > 100 µM

Q: And the TGI (BT-549 breast)?
A: > 100 µM

Q: What about the TGI (RPMI-8226 leukemia) of the same compound?
A: > 100 µM

Q: What about the TGI (SF-539 CNS) of the same compound?
A: > 100 µM
